Experimental data reported in patent publication US20220323406A1, “METHODS AND COMPOSITIONS FOR DIFFERENTIATING STEM CELLS” (Massachusetts Institute of Technology, priority 2019, published 2022).

What was measured:
[1] = system: ENR+CD organoids (ISC to Paneth cell differentiation); test: Primary screen: CCh-stimulated lysozyme secretion LYZ.S, 2.5-D 384-well ENR+CD organoid differentiation; type: cell-based, mouse; conditions: primary screen
Text: (§1) High-throughput screening.

ENR+CD organoids = test: Primary screen: ATP (CellTiter-Glo 3D, CTG) cell number/viability, 2.5-D 384-well ENR+CD organoids; conditions: primary screen; for Z.CTG: standard z score;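 on all read-outs here: compounds given at plating and again on day 3 over a 6-day differentiation from ENR+CV stem-cell-enriched precursors, ATP measured on day 6, plate median as control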
[2] = system: ENR+CD organoids (ISC to Paneth cell differentiation); test: Primary screen: basal (non-stimulated) lysozyme secretion LYZ.NS, 2.5-D 384-well ENR+CD organoid differentiation; type: cell-based, mouse; conditions: primary screen; for Z.LYZ.NS: standard z score
Text: as §1

[3] = dose 0.08 uM, FC relative to plate median
[4] = dose 0.40 uM, FC relative to plate median
[5] = dose 2.00 uM, FC relative to plate median
[6] = dose 10.00 uM, FC relative to plate median
[7] = 1st dose row of the treatment (0.08 uM by row order; dose not reprinted)
[8] = 2nd dose row of the treatment (0.40 uM by row order; dose not reprinted)
[9] = 3rd dose row of the treatment (2.00 uM by row order; dose not reprinted)
[10] = 4th dose row of the treatment (10.00 uM by row order; dose not reprinted)

## Cc1cc(Nc2ccc(NC(=O)c3ccc(Nc4ccnc5ccccc45)cc3)cc2)nc(N)n1 [SGI-1027]
[1]; [3]
  Dose.FC.LYZ.S: 0.060 log2 fold change
[1]; [4]
  Dose.FC.LYZ.S: 0.145 log2 fold change
[1]; [5]
  Dose.FC.LYZ.S: 0.094 log2 fold change
[1]; [6]
  Dose.FC.LYZ.S: 0.018 log2 fold change
ENR+CD organoids; [3]
  Dose.FC.CTG: 0.244 log2 fold change
ENR+CD organoids; dose 0.08 uM
  Z.CTG: 0.583
ENR+CD organoids; [4]
  Dose.FC.CTG: 0.298 log2 fold change
ENR+CD organoids; dose 0.40 uM
  Z.CTG: 0.712
ENR+CD organoids; [5]
  Dose.FC.CTG: 0.172 log2 fold change
ENR+CD organoids; dose 2.00 uM
  Z.CTG: 0.412
ENR+CD organoids; [6]
  Dose.FC.CTG: 0.052 log2 fold change
ENR+CD organoids; dose 10.00 uM
  Z.CTG: 0.125
[2]; [3]
  Dose.FC.LYZ.NS: 0.061 log2 fold change
[2]; dose 0.08 uM
  Z.LYZ.NS: 0.528
[2]; [4]
  Dose.FC.LYZ.NS: 0.084 log2 fold change
[2]; dose 0.40 uM
  Z.LYZ.NS: 0.735
[2]; [5]
  Dose.FC.LYZ.NS: 0.129 log2 fold change
[2]; dose 2.00 uM
  Z.LYZ.NS: 1.123
[2]; [6]
  Dose.FC.LYZ.NS: −0.005 log2 fold change
[2]; dose 10.00 uM
  Z.LYZ.NS: −0.046

## O=C(c1cn(Cc2cncn2Cc2ccc(Br)cc2)cc1-c1cccc2ccccc12)N1CCOCC1 [LB42708]
[1]; dose 0.08 uM
  Dose.FC.LYZ.S (log2 fold change): −0.089
[1]; dose 0.40 uM
  Dose.FC.LYZ.S (log2 fold change): −0.144
[1]; dose 2.00 uM
  Dose.FC.LYZ.S (log2 fold change): −0.238
[1]; dose 10.00 uM
  Dose.FC.LYZ.S (log2 fold change): −0.233
ENR+CD organoids; dose 0.08 uM
  Dose.FC.CTG (log2 fold change): −0.072
  Z.CTG (standard z score): −0.172
ENR+CD organoids; dose 0.40 uM
  Dose.FC.CTG (log2 fold change): −0.342
  Z.CTG (standard z score): −0.817
ENR+CD organoids; dose 2.00 uM
  Dose.FC.CTG (log2 fold change): −0.116
  Z.CTG (standard z score): −0.277
ENR+CD organoids; dose 10.00 uM
  Dose.FC.CTG (log2 fold change): −0.706
  Z.CTG (standard z score): −1.685
[2]; dose 0.08 uM
  Dose.FC.LYZ.NS (log2 fold change): −0.116
  Z.LYZ.NS (standard z score): −1.010
[2]; dose 0.40 uM
  Dose.FC.LYZ.NS (log2 fold change): −0.140
  Z.LYZ.NS (standard z score): −1.221
[2]; dose 2.00 uM
  Dose.FC.LYZ.NS (log2 fold change): −0.176
  Z.LYZ.NS (standard z score): −1.531
[2]; dose 10.00 uM
  Dose.FC.LYZ.NS (log2 fold change): −0.182
  Z.LYZ.NS (standard z score): −1.587

## O=C(O)c1ccc(N2C(=O)/C(=C\c3ccc(-c4ccc([N+](=O)[O-])cc4)o3)C=C2c2ccccc2)cc1 [4E1RCat]
[1]; [7]
  SSMD.LYZ.S_Rep (strictly standardized mean difference): 0.712
  Z.LYZ.S (standard z score): 0.690
[1]; [8]
  SSMD.LYZ.S_Rep (strictly standardized mean difference): 0.185
  Z.LYZ.S (standard z score): 0.247
[1]; [9]
  SSMD.LYZ.S_Rep (strictly standardized mean difference): 0.311
  Z.LYZ.S (standard z score): 0.316
[1]; [10]
  SSMD.LYZ.S_Rep (strictly standardized mean difference): 0.321
  Z.LYZ.S (standard z score): 0.530
[1]; dose 0.08 uM
  Dose.FC.LYZ.S: 0.107 log2 fold change
[1]; dose 0.40 uM
  Dose.FC.LYZ.S: 0.038 log2 fold change
[1]; dose 2.00 uM
  Dose.FC.LYZ.S: 0.049 log2 fold change
[1]; dose 10.00 uM
  Dose.FC.LYZ.S: 0.082 log2 fold change
ENR+CD organoids; [7]
  SSMD.CTG.Rep (strictly standardized mean difference): 0.790
ENR+CD organoids; [8]
  SSMD.CTG.Rep (strictly standardized mean difference): 0.559
ENR+CD organoids; [9]
  SSMD.CTG.Rep (strictly standardized mean difference): 0.022
ENR+CD organoids; [10]
  SSMD.CTG.Rep (strictly standardized mean difference): −0.026
ENR+CD organoids; dose 0.08 uM
  Dose.FC.CTG: 0.246 log2 fold change
  Z.CTG (standard z score): 0.587
ENR+CD organoids; dose 0.40 uM
  Dose.FC.CTG: 0.362 log2 fold change
  Z.CTG (standard z score): 0.864
ENR+CD organoids; dose 2.00 uM
  Dose.FC.CTG: 0.006 log2 fold change
  Z.CTG (standard z score): 0.015
ENR+CD organoids; dose 10.00 uM
  Dose.FC.CTG: −0.011 log2 fold change
  Z.CTG (standard z score): −0.026
[2]; [7]
  SSMD.LYZ.NS_Rep (strictly standardized mean difference): 0.883
[2]; [8]
  SSMD.LYZ.NS_Rep (strictly standardized mean difference): −0.121
[2]; [9]
  SSMD.LYZ.NS_Rep (strictly standardized mean difference): 0.437
[2]; [10]
  SSMD.LYZ.NS_Rep (strictly standardized mean difference): 0.053
[2]; dose 0.08 uM
  Dose.FC.LYZ.NS: 0.100 log2 fold change
  Z.LYZ.NS (standard z score): 0.874
[2]; dose 0.40 uM
  Dose.FC.LYZ.NS: −0.018 log2 fold change
  Z.LYZ.NS (standard z score): −0.154
[2]; dose 2.00 uM
  Dose.FC.LYZ.NS: 0.151 log2 fold change
  Z.LYZ.NS (standard z score): 1.316
[2]; dose 10.00 uM
  Dose.FC.LYZ.NS: 0.007 log2 fold change
  Z.LYZ.NS (standard z score): 0.062

## Cc1ccccc1C(C(=O)NC1CCCCC1)N(C(=O)Cn1ccnc1C)c1cccc(F)c1 (centres unmarked) [AGI-5198]
[1]; dose 0.08 uM
  Dose.FC.LYZ.S: 0.092 log2 fold change
[1]; dose 0.40 uM
  Dose.FC.LYZ.S: 0.185 log2 fold change
[1]; dose 2.00 uM
  Dose.FC.LYZ.S: 0.073 log2 fold change
[1]; dose 10.00 uM
  Dose.FC.LYZ.S: −0.005 log2 fold change
ENR+CD organoids; dose 0.08 uM
  Dose.FC.CTG: 0.309 log2 fold change
ENR+CD organoids; dose 0.40 uM
  Dose.FC.CTG: 0.154 log2 fold change
ENR+CD organoids; dose 2.00 uM
  Dose.FC.CTG: 0.281 log2 fold change
ENR+CD organoids; dose 10.00 uM
  Dose.FC.CTG: 0.336 log2 fold change
[2]; dose 0.08 uM
  Dose.FC.LYZ.NS: 0.055 log2 fold change
  Z.LYZ.NS (standard z score): 0.482
[2]; dose 0.40 uM
  Dose.FC.LYZ.NS: 0.042 log2 fold change
  Z.LYZ.NS (standard z score): 0.362
[2]; dose 2.00 uM
  Dose.FC.LYZ.NS: 0.039 log2 fold change
  Z.LYZ.NS (standard z score): 0.342
[2]; dose 10.00 uM
  Dose.FC.LYZ.NS: −0.007 log2 fold change
  Z.LYZ.NS (standard z score): −0.064
